Results taken from ChEMBL document CHEMBL4325903, “N-Substituted aminoquinoline-pyrimidine hybrids: Synthesis, in vitro antimalarial activity evaluation and docking studies” (Eur J Med Chem, 2019).
pIC50: −log10 of the molar value. Active and inactive are the calls of the source. The calls are words filed in the database; no cut-off is given here.

How the values were obtained:
Plasmodium falciparum [1] = assay: Antimalarial activity against chloroquine-sensitive Plasmodium falciparum D6 infected in RBC after 72 hrs by LDH release assay; type: functional, organism-based; settings: D6, 72 h
[2] = Selectivity index, ratio of IC50 for cytotoxicity against African green monkey Vero cells to IC50 for chloroquine-sensitive Plasmodium falciparum D6; type: toxicity, cell-based; settings: read-out: Ratio IC50
Plasmodium falciparum [3] = assay: Antimalarial activity against chloroquine-resistant Plasmodium falciparum W2 infected in RBC after 72 hrs by LDH release assay; type: functional, organism-based; settings: W2, 72 h
[4] = Selectivity index, ratio of IC50 for cytotoxicity against African green monkey Vero cells to IC50 for chloroquine-resistant Plasmodium falciparum W2; type: toxicity, cell-based; settings: read-out: Ratio IC50
Vero [5] = assay: Cytotoxicity against African green monkey Vero cells up to 10 uM after 48 hrs by neutral red assay; type: cell-based; settings: chlorocebus sabaeus
Vero [6] = assay: Cytotoxicity against African green monkey Vero cells after 48 hrs by neutral red assay; type: cell-based; settings: chlorocebus sabaeus
Plasmodium falciparum [7] = assay: Potency index, ratio of chloroquine IC50 to compound IC50 for antimalarial activity against chloroquine-resistant Plasmodium falciparum W2 infected in RBC; type: functional
[8] = Binding affinity to hemin assessed as 1:1 stoichiometry for compound-hemin complex up to 12 uM at pH 7.4 by Job's plot analysis
[9] = Binding affinity to hemin assessed as 1:1 stoichiometry for compound-hemin complex up to 12 uM at pH 5.6 by Job's plot analysis
mu-oxodimeric heme = assay: Binding affinity to mu-oxodimeric heme assessed as 1:1 up to 20 uM at pH 5.8 by titration method

Row | SMILES | pIC50 (Plasmodium falciparum [1]) | selectivity ratio [2] | pIC50 (Plasmodium falciparum [3]) | selectivity ratio [4] | Activity (Vero [5]) | pIC50 (Vero [6]) | Ratio IC50 (Plasmodium falciparum [7]) | Activity [8] | Activity [9] | Activity (mu-oxodimeric heme)
1 | Cc1cc(N2CCN(C)CC2)nc(N(CCNc2ccnc3cc(Cl)ccc23)Cc2ccccn2)n1 | 7.40 | > 238 | 6.86 | > 68 | Non-Toxic |  |  |  |  | 
2 | Cc1cc(N(CCCNc2ccnc3cc(Cl)ccc23)Cc2ccccn2)nc(N2CCCCC2)n1 | 7.03 | > 102 | 6.09 | > 11.6 | Non-Toxic |  |  |  |  | 
3 | Cc1cc(Cl)nc(N(CCNc2ccnc3cc(Cl)ccc23)Cc2ccccn2)n1 | 6.43 | 23.2 | 6.00 | 8.5 |  |  |  |  |  | 
4 | Cc1cc(N2CCCC2)nc(N(CCNc2ccnc3cc(Cl)ccc23)Cc2ccccn2)n1 | 6.85 | > 71.7 | 6.07 | > 11.7 | Non-Toxic |  |  |  |  | 
5 | Cc1cc(N2CCCCC2)nc(N(CCCNc2ccnc3cc(Cl)ccc23)Cc2cccs2)n1 | 7.35 | 161 | 6.73 | 38.9 |  | 5.14 |  |  |  | 
6 | Cc1cc(N(CCCNc2ccnc3cc(Cl)ccc23)Cc2ccccn2)nc(Cl)n1 | 5.86 | > 7.6 | 6.50 | > 33.5 | Non-Toxic |  |  |  |  | 
7 | Cc1cc(N2CCN(C)CC2)nc(N(CCCNc2ccnc3cc(Cl)ccc23)Cc2cccs2)n1 | 7.41 | > 23.4 | 7.70 | > 45.8 | Non-Toxic |  |  |  |  | 
8 | CCN1CCN(c2cc(C)nc(N(CCNc3ccnc4cc(Cl)ccc34)Cc3ccccn3)n2)CC1 | 7.47 | > 270 | 7.41 | > 273 | Non-Toxic |  |  |  |  | 
9 | CCN1CCN(c2nc(C)cc(N(CCNc3ccnc4cc(Cl)ccc34)Cc3ccccn3)n2)CC1 | 7.55 | > 326 | 7.03 | > 98 | Non-Toxic |  |  |  |  | 
10 | CCN1CCN(c2nc(C)cc(N(CCCNc3ccnc4cc(Cl)ccc34)Cc3ccccn3)n2)CC1 | 7.55 | > 321 | 6.86 | > 66 | Non-Toxic |  |  |  |  | 
11 | Clc1ccc2c(NCCCNCc3cccs3)ccnc2c1 | 6.37 | > 33.8 | 7.12 | > 19.1 | Non-Toxic |  |  |  |  | 
12 | Cc1cc(N(CCCNc2ccnc3cc(Cl)ccc23)Cc2ccccn2)nc(N2CCN(C)CC2)n1 | 6.37 | > 21.6 | 6.61 | > 37.8 | Non-Toxic |  |  |  |  | 
13 | CCN1CCN(c2cc(C)nc(N(CCCNc3ccnc4cc(Cl)ccc34)Cc3cccs3)n2)CC1 | 7.48 | > 27 | 7.72 | > 46.8 | Non-Toxic |  | 22 |  |  | 
14 | Cc1cc(N(CCCNc2ccnc3cc(Cl)ccc23)Cc2ccccn2)nc(N2CCCC2)n1 | 7.44 | > 274 | 6.85 | > 69 | Non-Toxic |  |  |  |  | 
15 | Cc1cc(N(CCCNc2ccnc3cc(Cl)ccc23)Cc2cccs2)nc(N2CCOCC2)n1 | 7.26 | 168 | 6.39 | 22.7 |  | 5.03 |  |  |  | 
16 | Cc1cc(N(CCNc2ccnc3cc(Cl)ccc23)Cc2ccccn2)nc(N2CCOCC2)n1 | 6.82 | > 64.2 | 6.28 | > 18.5 | Non-Toxic |  |  |  |  | 
17 | Cc1cc(N2CCCC2)nc(N(CCCNc2ccnc3cc(Cl)ccc23)Cc2cccs2)n1 | 7.44 | > 26.8 | 7.40 | > 24 | Non-Toxic |  |  |  |  | 
18 | Cc1cc(N2CCCCC2)nc(N(CCNc2ccnc3cc(Cl)ccc23)Cc2ccccn2)n1 | 6.60 | > 38.6 | 5.84 | > 6.8 | Non-Toxic |  |  |  |  | 
19 | CCN1CCN(c2nc(C)cc(N(CCCNc3ccnc4cc(Cl)ccc34)Cc3cccs3)n2)CC1 | 7.45 | > 24.8 | 7.51 | > 28.4 | Non-Toxic |  |  |  |  | 

Row | SMILES | pIC50 (Plasmodium falciparum [1]) | selectivity ratio [2] | pIC50 (Plasmodium falciparum [3]) | selectivity ratio [4] | Activity (Vero [5]) | pIC50 (Vero [6]) | Ratio IC50 (Plasmodium falciparum [7]) | Activity [8] | Activity [9] | Activity (mu-oxodimeric heme)
20 | Cc1cc(N(CCCNc2ccnc3cc(Cl)ccc23)Cc2cccs2)nc(N2CCCC2)n1 | 7.38 | > 229 | 6.69 | > 47.7 | Non-Toxic |  |  |  |  | 
21 | Cc1cc(N(CCNc2ccnc3cc(Cl)ccc23)Cc2ccccn2)nc(N2CCCC2)n1 | 7.52 | > 331 | 6.84 | > 70 | Non-Toxic |  |  |  |  | 
22 | Cc1cc(N2CCCC2)nc(N(CCCNc2ccnc3cc(Cl)ccc23)Cc2ccccn2)n1 | 5.98 | > 9.4 | 6.41 | > 25.1 | Non-Toxic |  |  |  |  | 
23 | Cc1cc(N2CCN(C)CC2)nc(N(CCCNc2ccnc3cc(Cl)ccc23)Cc2ccccn2)n1 | 6.26 | > 16.7 | 6.72 | > 48.5 | Non-Toxic |  |  |  |  | 
24 | Cc1cc(N(CCCNc2ccnc3cc(Cl)ccc23)Cc2cccs2)nc(Cl)n1 | 6.61 | > 42.2 | 6.22 | > 17.1 | Non-Toxic |  |  |  |  | 
25 | Cc1cc(N(CCNc2ccnc3cc(Cl)ccc23)Cc2ccccn2)nc(N2CCCCC2)n1 | 7.19 | > 151 | 6.31 | > 19.7 | Non-Toxic |  |  |  |  | 
26 | CCN(CC)CCCC(C)Nc1ccnc2cc(Cl)ccc12 (stereo unspecified) [CHLOROQUINE] |  |  |  |  | Non-Toxic |  |  |  |  | 
27 | Cc1cc(N(CCCNc2ccnc3cc(Cl)ccc23)Cc2ccccn2)nc(N2CCOCC2)n1 | 6.94 | > 82.5 | 6.29 | > 18.5 | Non-Toxic |  |  |  |  | 
28 | Cc1cc(N(CCCNc2ccnc3cc(Cl)ccc23)Cc2cccs2)nc(N2CCCCC2)n1 | 7.08 | 109 | 6.63 | 38.9 |  | 5.04 |  |  |  | 
29 | Cc1cc(N2CCOCC2)nc(N(CCCNc2ccnc3cc(Cl)ccc23)Cc2ccccn2)n1 | 5.94 | > 8.3 | 6.48 | > 28.3 | Non-Toxic |  |  |  |  | 
30 | Cc1cc(N(CCNc2ccnc3cc(Cl)ccc23)Cc2ccccn2)nc(N2CCN(C)CC2)n1 |  |  | 6.85 |  | Non-Toxic |  |  | 0.5 molar ratio | 0.5 molar ratio | Active
31 | C[C@@H]1CC[C@H]2[C@@H](C)C(=O)O[C@@H]3O[C@@]4(C)CC[C@@H]1[C@]32OO4 [ARTEMISININ] | 7.77 | > 49.2 | 7.79 | > 52 | Non-Toxic |  |  |  |  | 
32 | Cc1cc(Cl)nc(N(CCCNc2ccnc3cc(Cl)ccc23)Cc2ccccn2)n1 | 5.78 | > 6.3 | 6.09 | > 13 | Non-Toxic |  |  |  |  | 
33 | Cc1cc(Cl)nc(N(CCCNc2ccnc3cc(Cl)ccc23)Cc2cccs2)n1 | 6.92 | > 87.2 | 6.34 | > 22.5 | Non-Toxic |  |  |  |  | 
34 | Cc1cc(N2CCOCC2)nc(N(CCCNc2ccnc3cc(Cl)ccc23)Cc2cccs2)n1 | 7.25 | > 167 | 6.27 | > 17.2 | Non-Toxic |  |  |  |  | 
35 | Cc1cc(N(CCCNc2ccnc3cc(Cl)ccc23)Cc2cccs2)nc(N2CCN(C)CC2)n1 | 7.43 | > 24.6 | 7.41 | > 23.5 | Non-Toxic |  |  |  |  | 
36 | Cc1cc(N2CCCCC2)nc(N(CCCNc2ccnc3cc(Cl)ccc23)Cc2ccccn2)n1 | 5.92 | > 7.9 | 6.02 | > 10 | Non-Toxic |  |  |  |  | 
37 | Cc1cc(N(CCNc2ccnc3cc(Cl)ccc23)Cc2ccccn2)nc(Cl)n1 | 6.63 | > 46.6 | 6.31 | > 22 | Non-Toxic |  |  |  |  | 
38 | Cc1cc(N2CCOCC2)nc(N(CCNc2ccnc3cc(Cl)ccc23)Cc2ccccn2)n1 | 6.51 | > 31.2 | 6.61 | > 39.1 | Non-Toxic |  |  |  |  | 
